This is an account of results in patent US20250034186A1, “ANTIVIRAL COMPOUNDS” (priority 2020, published 2025).

Data set [1] in a line: Stability assay in cynomolgus monkey hepatic S9 fractions. The class given is in vitro ADME. The note with it: 37° C., NADPH and UDPGA, read-out: Cyno HepS9 t1/2. As for the experimental part:
(§1) For S9 stability, the compounds were incubated at 2 μM in cynomolgus monkey or human hepatic S9 fractions for up to 90 min at 37° C. in the presence of NADPH and UDPGA (Phase I and Phase II cofactor, Sigma-Aldrich). At desired time points following compound addition, samples were quenched with 9 volumes of an aqueous solution containing internal standard, 50% acetonitrile and 25% methanol. Sample plates were centrifuged at 3000 g for 30 min, and 10 μL of the resulting solution was analyzed by LC-MS/MS. Data (analyte to internal standard peak area ratio) were plotted on a semi log scale and fitted using an exponential fit. The half-life (T1/2) was determined assuming first order kinetics.

Data set [2] in a line: Stability assay in human hepatic S9 fractions. The data set is classed as in vitro ADME. Particulars: 37° C., NADPH and UDPGA, read-out: Hum HepS9 t1/2. As for the experimental part: as §1
Another data set has as its system HRV16. Description: HRV16 HeLa EC50. The data set is classed as cell-based, human rhinovirus. The note with it: Human rhinovirus sp., HRV16; H1-HeLa cells, 96 h, 33° C. The method, then: H1-HeLa cells, cultured in complete DMEM medium containing 10% heat-inactivated FBS and 1% Penicillin/Streptomycin, were seeded in 96 well plates at 3000 cells/well one day prior to compound dosing and infection. The antiviral activity of each compound was measured in triplicate. Compounds were added directly to the cell cultures in serial 3-fold dilutions using the HP300 digital dispenser (Hewlett Packard, Palo Alto, CA) immediately prior to infection. The plates were transferred to BSL-2 containment and the appropriate dilution of virus stock, previously determined by titration and prepared in cell culture media, was added to test plates containing cells and serially diluted compounds. Each plate included 6 wells of infected untreated cells and 6 wells of uninfected cells that served as 0% and 100% virus inhibition control, respectively. Following the infection, test plates were incubated for 96 h in a tissue culture incubator set to 33° C./5% CO2. Following incubation, the H1-HeLa cells were removed from incubation and allowed to equilibrate to 25° C. Cell viability was determined by removing 100 μL of culture medium and adding 100 μL of Cell-Titer Glo viability reagent. The mixtures were incubated on a shaker for 10 minutes at 25° C., and the luminescence signal was quantified on an Envision luminescence plate reader.

Another data set is described as follows: in vitro. The data set is classed as in vitro ADME. The note with it: plasma, 37° C., up to 4 h. The method, then: For plasma stability, the compounds were incubated at 2 μM in cynomolgus monkey or human plasma for up to 4 h at 37° C. At desired time points, an aliquot from the incubation was quenched by addition of 9 volumes of 100% acetonitrile supplemented with internal standard. Following the last collection, samples were centrifuged at 3000 g for 30 min and supernatants were transferred to a new plate containing an equal volume of water for analysis by liquid chromatography coupled to triple quadrupole mass spectrometry (LC-MS/MS). Data (analyte to internal standard peak area ratio) were plotted on a semi log scale and fitted using an exponential fit. The half-life (T1/2) was determined assuming first order kinetics.

For the next data set, the system named is RSV strain A2. Description: RSV HEp-2 EC50, infectious cytopathic cell protection assay. Particulars: human respiratory syncytial virus, 96 h; RSV A2 in HEp-2 cells, 4 days, Cell TiterGlo. The class given is cell-based. As for the experimental part:
Antiviral activity against RSV is determined using an infectious cytopathic cell protection assay in HEp-2 cells. In this assay, compounds inhibiting viral infection and/or replication produce a cytoprotective effect against the virus-induced cell killing that can be quantified using a cell viability reagent. The techniques used here are novel adaptations of methods described in published literature (Chapman et al., Antimicrob Agents Chemother. 2007, 51(9):3346-53.).
HEp-2 cells are obtained from ATCC (Manassas, VI) and maintained in MEM media supplemented with 10% fetal bovine serum and penicillin/streptomycin. Cells are passaged twice a week and kept at subconfluent stage. Commercial stock of RSV strain A2 (Advanced Biotechnologies, Columbia, MD) is titered before compound testing to determine the appropriate dilution of the virus stock that generates desirable cytopathic effect in HEp-2 cells.
For antiviral tests, HEp-2 cells are grown in large cell culture flasks to near confluency but not fully so. The compounds to be tested are prediluted in DMSO in 384-well compound dilution plates, either in an 8 or 40 sample per plate standardized dose response format. 3-fold serial dilution increments of each test compound are prepared in the plates and test samples are transferred via acoustic transfer apparatus (Echo, Labcyte) at 100 nL per well into cell culture assay 384-well plates. Each compound dilution is transferred in single or quadruplicate samples into dry assay plates, which are stored until assay is ready to go. The positive and negative controls are laid out in opposite on ends of the plate in vertical blocks (1 column).
Subsequently, an infectious mixture is prepared using an appropriate dilution of virus stock previously determined by titration with cells at a density of 50,000/mL and 20 μL/well is added to test plates w/compounds via automation (uFlow, Biotek). Each plate includes negative and positive controls (16 replicates each) to create 0% and 100% virus inhibition standards, respectively. Following the infection with RSV, testing plates are incubated for 4 days in a 37° C. cell culture incubator. After the incubation, a cell viability reagent, Cell TiterGlo (Promega, Madison, WI) is added to the assay plates, which are incubated briefly, and a luminescent readout is measured (Envision, Perkin Elmer) in all the assay plates. The RSV-induced cytopathic effect, percentage inhibition, is determined from the levels of remaining cell viability. […] Various potent anti-RSV tool compounds are used as positive controls for antiviral activity.
(In general: Protection from cytopathic effect is a common read-out in antiviral testing.)

For another data set, the system named is RSV A2. Description: RSV NHBE EC50, RSV A2 antiviral assay. The data set is classed as cell-based. The note with it: human respiratory syncytial virus, 96 h; RSV A2 in NHBE cells, 4 days. As for the experimental part:
Normal human bronchial epithelial (NHBE) cells were purchased from Lonza (Walkersville, MD, Cat #CC-2540) and cultured in Bronchial Epithelial Growth Media (BEGM) (Lonza, Walkersville, MD, Cat #CC-3170). The cells were passaged 1-2 times per week to maintain <80% confluency. The NHBE cells were discarded after 6 passages in culture.
To conduct the RSV A2 antiviral assay, NHBE cells were plated in 96-well plates at a density of 7,500 cells per well in BEGM and allowed to attach overnight at 37° C. Following attachment, 100 μL of cell culture media was removed and 3-fold serially diluted compound was added using a Hewlett-Packard D300 Digital Dispenser. The final concentration of DMSO was normalized to 0.05%. Following compound addition, the NHBE cells were infected by the addition of 100 μL of RSV A2 at a titer of 1×10^4.5 tissue culture infectious doses/mL in BEGM and then incubated at 37° C. for 4 days. The NHBE cells were then allowed to equilibrate to 25° C. and cell viability was determined by removing 100 μL of culture medium and adding 100 μL of Cell-Titer Glo viability reagent. The mixtures were incubated for 10 minutes at 25° C., and the luminescence signal was quantified on an Envision luminescence plate reader.

A short description of the next data set: MT-4 cytotoxicity assay. The data set is classed as cell-based. The note with it: human, MT-4 cells (uninfected), 4-5 days, read-out: CC50 MT4. The method, then: (§2) Cytotoxicity of the compound of Formula I and compounds 1, 2, and 6 was determined in uninfected cells using the cell viability reagent in a similar fashion as described before for other cell types (Cihlar et al., Antimicrob Agents Chemother. 2008, 52(2):655-65.). HEp-2 (1.5×10^3 cells/well) and MT-4 (2×10^3 cells/well) cells were plated in 384-well plates and incubated with the appropriate medium containing 3-fold serially diluted compound ranging from 15 nM to 100,000 nM. Cells were cultured for 4-5 days at 37° C. Following the incubation, the cells were allowed to equilibrate to 25° C., and cell viability was determined by adding Cell-Titer Glo viability reagent. The mixture was incubated for 10 min, and the luminescence signal was quantified using an Envision plate reader. Untreated cell and cells treated at 2 μM puromycin (Sigma, St. Louis, MO) serve as 100% and 0% cell viability control, respectively.

The next data set can be described thus: HEp-2 cytotoxicity assay. The data set is classed as cell-based. The note with it: human, HEp-2 cells (uninfected), 4-5 days. The method, then: as §2
[3] abbreviates: human, read-out: Hum Plasma t1/2.

Broadly, the EC50 is the concentration at which the effect is half-maximal. In the case of `CCC(CC)COC(=O)[C@H](C)N[P@@](=O)(OC[C@@]1(C#N)O[C@@H](c2ccc3c(N)ncnn23)[C@H](O)[C@@H]1O)Oc1ccccc1` (single isomer, unassigned) [Compound 7], the half-life at 2 μM in data set [1] stood at 2 min; in data set [2], 6 min; in the data set “in vitro” (cynomolgus monkey, read-out: Cyno Plasma t1/2) it was 2.97 h; in the data set “in vitro” (setting [3]), 3.88 h. Besides, the values for the EC50 in the data set with HRV16, in the data set with RSV strain A2 and with RSV A2 were 183 nM, 124 nM and 91 nM, respectively.
Broadly, the CC50 is the concentration that lowers cell viability or growth by half. For the molecule `CCOC(=O)[C@H](C)N[P@](=O)(OC[C@@]1(C#N)O[C@@H](c2ccc3c(N)ncnn23)[C@H](O)[C@@H]1O)Oc1ccccc1` [Compound 8, ethyl ((S)-(((2R,3S,4R,5S)-5-(4-aminopyrrolo[2,1-f][1,2,4]triazin-7-yl)-2-cyano-3,4-dihydroxytetrahydrofuran-2-yl)methoxy)(phenoxy)phosphoryl)-L-alaninate], the half-life at 2 μM in data set [2] is 2 min; in the data set “in vitro” (setting [3]), 6.02 h. The EC50 in the data set with HRV16 came to 678 nM; in the data set on RSV strain A2, 91 nM; in the data set on RSV A2, 932 nM. Besides, the values for the CC50 in “MT-4 cytotoxicity assay” and in “HEp-2 cytotoxicity assay” were 28300 nM and > 100000 nM, respectively.
